Data from patent US11090319B2, “Therapeutic uses of pharmaceutical compositions comprising cyclic boronic acid ester derivatives” (Melinta Subsidiary Corp., priority 2010, dated 2021).
pIC50: −log10 of the molar value. Read-outs that look alike come from different tables or passages of the source.

Tests used:
SHV-5, lysate of ec308 = SHV-5, lysate of ec308 (Escherichia coli, UniProt P0AD63, E235K/G234S); experiment: Inhibition of ceftazidime hydrolysis by bacterial lysate
[1] = test system: CF1001 Citrobacter freundii Hyper AmpC expression; experiment: Ceftazidime MIC with fixed concentration of BLI; assay type: cell-based; details: derivative at 10 μg/mL
Description: (§1) Next, ceftazidime potentiation activity of several cyclic boronic acid ester derivatives was tested using a larger panel of strains expressing β-lactamase hydrolyzing enzymes. Ceftazidime MICs were determined alone and in the presence of fixed concentrations of various cyclic boronic acid ester derivatives.

[2] = test system: KP1013 Klebsiella pneumoniae CMY-2; experiment: Ceftazidime MIC with fixed concentration of BLI; assay type: cell-based; details: derivative at 10 μg/mL; KP1013 CMY-2
Description: as §1

[3] = test system: KP1006 Klebsiella pneumoniae CTX-M2; experiment: Ceftazidime MIC with fixed concentration of BLI; assay type: cell-based; details: derivative at 10 μg/mL
Description: as §1

SA1000 Salmonella CMY-2 = experiment: Ceftazidime MIC with fixed concentration of BLI; assay type: cell-based; details: derivative at 10 μg/mL; SA1000 CMY-2
Description: as §1

[4] = test system: PAM2005 Pseudomonas aeruginosa ampC; experiment: Ceftazidime MIC with fixed concentration of BLI; assay type: cell-based; details: derivative at 10 μg/mL
Description: as §1

[5] = test system: ECL1003 Enterobacter cloacae Hyper AmpC expression; experiment: Ceftazidime MIC with fixed concentration of BLI; assay type: cell-based; details: derivative at 10 μg/mL
Description: as §1

[6] = test system: AB1052 Acinetobacter baumannii OXA-24; experiment: Ceftazidime MIC with fixed concentration of BLI; assay type: cell-based; details: derivative at 10 μg/mL; AB1052 OXA-24
Description: as §1

[7] = test system: EC1016 Escherichia coli FOX-5; experiment: Ceftazidime MIC with fixed concentration of BLI; assay type: cell-based; details: derivative at 10 μg/mL; EC1016 FOX-5
Description: as §1

[8] = test system: EC1007 Escherichia coli KPC-3; experiment: Ceftazidime MIC with fixed concentration of BLI; assay type: cell-based; details: derivative at 10 μg/mL; EC1007 KPC-3
Description: as §1

[9] = test system: KP1014 Klebsiella pneumoniae Vim-1; experiment: Ceftazidime MIC with fixed concentration of BLI; assay type: cell-based; details: derivative at 10 μg/mL; KP1014 Vim-1
Description: as §1

[10] = test system: SM1000 Serratia marcescens SME-2; experiment: Checkerboard assay, biapenem potentiation; details: Biapenem MIC 8-fold; SM1000 SME-2 class A
[11] = target: CTX-M-15, lysate of KP1009 (Escherichia coli, UniProt Q9EXV5); experiment: Inhibition of ceftazidime hydrolysis by bacterial lysate
OXA-2, lysate of KX1000 = OXA-2, lysate of KX1000 (Salmonella typhimurium, UniProt P0A1V8); experiment: as above
[12] = target: various β-lactamases (bacterial lysates) (Klebsiella pneumoniae, UniProt Q9F663); experiment: biochemical; assay type: biochemical; details: aztreonam cleavage; for IC50: lysate KP1004 KPC-2, read-out: AZT IC50 KP1004 KPC-2 (converted); for pIC50: lysate KP1008 KPC-2, read-out: AZT IC50 KP1008 KPC-2
[13] = target: various β-lactamases (bacterial lysates) (Salmonella typhimurium, UniProt P0A1V8); experiment: biochemical; assay type: biochemical; details: AZT IC50 KPX1001 OXA-2
[14] = target: various β-lactamases (bacterial lysates) (Escherichia coli, UniProt A0A5R8T042); experiment: biochemical; assay type: biochemical; details: read-out: AZT IC50 KP1009 CTX-M-15
[15] = target: various β-lactamases (bacterial lysates) (Klebsiella pneumoniae, UniProt Q9F663, H272Y); experiment: biochemical; assay type: biochemical
[16] = target: various β-lactamases (bacterial lysates) (Pseudomonas aeruginosa, UniProt P14489); experiment: biochemical; assay type: biochemical; details: AZT IC50 KP1007 OXA-10
[17] = target: various β-lactamases (bacterial lysates) (Escherichia coli, UniProt A0A649V088); experiment: biochemical; assay type: biochemical; details: read-out: AZT IC50 KP1005 CTX-M-14
KPC-2, lysate of KP1008 = KPC-2, lysate of KP1008 (Klebsiella pneumoniae, UniProt Q9F663); experiment: Inhibition of ceftazidime hydrolysis by bacterial lysate
SME-2, lysate of SM1000 = SME-2, lysate of SM1000 (Serratia marcescens, UniProt P52682); experiment: Inhibition of biapenem hydrolysis by bacterial lysate; details: read-out: IC50 of inhibition of biapenem hydrolysis; SM1000 SME-2
GES-1, lysate of pa 1063 = GES-1, lysate of pa 1063 (Klebsiella pneumoniae, UniProt Q9KJY7); experiment: Inhibition of ceftazidime hydrolysis by bacterial lysate
KPC-2, lysate of KP1004 = KPC-2, lysate of KP1004 (Klebsiella pneumoniae, UniProt Q9F663); experiment: as above
[18] = target: CTX-M-14, lysate of KP1005 (Escherichia coli, UniProt Q9L5C7); experiment: as above
[19] = test system: ECL1004 Enterobacter cloacae NMC-A; experiment: Checkerboard assay, biapenem potentiation; details: Biapenem MIC 8-fold; ECL1004 NMC-A class A
SHV-18, lysate of KP1012 = SHV-18, lysate of KP1012 (Klebsiella pneumoniae, UniProt P0AD64, E235K/G234A/R39S); experiment: Inhibition of ceftazidime hydrolysis by bacterial lysate
[20] = target: various β-lactamases (bacterial lysates) (Escherichia coli, UniProt Q53TY8); experiment: Inhibition of nitrocefin cleavage by bacterial lysates, Table 11; assay type: biochemical; details: lysate EC1010 pAmpC (CMY-6), read-out: NCF IC50 EC1010 pAmpC (CMY-6)
OXA-10, lysate of KP1007 = OXA-10, lysate of KP1007 (Pseudomonas aeruginosa, UniProt P14489); experiment: Inhibition of ceftazidime hydrolysis by bacterial lysate

Sequence of CTX-M-15, lysate of KP1009 (Q9EXV5 entry or part of it): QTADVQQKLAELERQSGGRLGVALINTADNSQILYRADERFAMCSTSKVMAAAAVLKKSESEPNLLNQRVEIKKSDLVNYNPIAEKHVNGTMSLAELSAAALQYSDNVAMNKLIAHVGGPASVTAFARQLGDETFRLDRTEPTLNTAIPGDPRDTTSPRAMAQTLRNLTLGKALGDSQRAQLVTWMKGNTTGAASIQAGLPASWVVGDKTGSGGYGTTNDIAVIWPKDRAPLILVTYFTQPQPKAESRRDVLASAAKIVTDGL
Sequence of various β-lactamases (bacterial lysates) (Escherichia coli, UniProt A0A5R8T042) (A0A5R8T042 29-291): as the sequence (Q9EXV5 entry or part of it) above

O=C(O)CC1CC[C@H](NC(=O)C2CC2)B(O)O1 (stereo partly drawn) [Compound 4, 2-((3R)-3-(cyclopropanecarboxamido)-2-hydroxy-1,2-oxaborinan-6-yl)acetic acid]
pIC50 (SHV-5, lysate of ec308): < 5.38 | Ceftazidime MIC with cyclic boronic acid ester derivative [1]: Z (MIC of greater than 8 μg/mL) | Ceftazidime MIC with cyclic boronic acid ester derivative [2]: Y (MIC of greater than 1 μg/mL to 8 μg/mL) | Ceftazidime MIC with cyclic boronic acid ester derivative [3]: X (MIC of 1 μg/mL or less) | Ceftazidime MIC with cyclic boronic acid ester derivative (SA1000 Salmonella CMY-2): Y (MIC of greater than 1 μg/mL to 8 μg/mL) | Ceftazidime MIC with cyclic boronic acid ester derivative [4]: Z (MIC of greater than 8 μg/mL) | Ceftazidime MIC with cyclic boronic acid ester derivative [5]: Z (MIC of greater than 8 μg/mL) | Ceftazidime MIC with cyclic boronic acid ester derivative [6]: Z (MIC of greater than 8 μg/mL) | Ceftazidime MIC with cyclic boronic acid ester derivative [7]: Z (MIC of greater than 8 μg/mL) | Ceftazidime MIC with cyclic boronic acid ester derivative [8]: X (MIC of 1 μg/mL or less) | Ceftazidime MIC with cyclic boronic acid ester derivative [9]: Z (MIC of greater than 8 μg/mL) | MPC8 [10]: X (MPC8 of less than 0.16 μg/mL) | pIC50 [11]: < 5.38 | pIC50 (OXA-2, lysate of KX1000): < 5.38 | IC50 [12]: < 2070 nM | pIC50 [12]: > 5.68 | pIC50 [13]: < 5.08 | pIC50 [14]: 5.08 to 5.68 | pIC50 [15]: > 5.68 | pIC50 [16]: < 5.08 | pIC50 [17]: > 5.68 | pIC50 (KPC-2, lysate of KP1008): > 6.38 | pIC50 (SME-2, lysate of SM1000): 5.38 to 6.38 | pIC50 (GES-1, lysate of pa 1063): 5.38 to 6.38 | pIC50 (KPC-2, lysate of KP1004): > 6.38 | pIC50 [18]: < 5.38 | MPC8 [19]: X (MPC8 of less than 0.16 μg/mL) | pIC50 (SHV-18, lysate of KP1012): < 5.38 | pIC50 [20]: < 5.08 | pIC50 (OXA-10, lysate of KP1007): < 5.38

O=C(O)C[C@@H]1CC[C@H](NC(=O)Cc2cccs2)B(O)O1 [Compound 5, 2-((3R,6S)-2-hydroxy-3-(2-(thiophen-2-yl)acetamido)-1,2-oxaborinan-6-yl)acetic acid]
pIC50 (SHV-5, lysate of ec308): < 5.47 | Ceftazidime MIC with cyclic boronic acid ester derivative [1]: Y (MIC of greater than 1 μg/mL to 8 μg/mL) | Ceftazidime MIC with cyclic boronic acid ester derivative [2]: Y (MIC of greater than 1 μg/mL to 8 μg/mL) | Ceftazidime MIC with cyclic boronic acid ester derivative [3]: X (MIC of 1 μg/mL or less) | Ceftazidime MIC with cyclic boronic acid ester derivative (SA1000 Salmonella CMY-2): Y (MIC of greater than 1 μg/mL to 8 μg/mL) | Ceftazidime MIC with cyclic boronic acid ester derivative [4]: Z (MIC of greater than 8 μg/mL) | Ceftazidime MIC with cyclic boronic acid ester derivative [5]: Z (MIC of greater than 8 μg/mL) | Ceftazidime MIC with cyclic boronic acid ester derivative [6]: Z (MIC of greater than 8 μg/mL) | Ceftazidime MIC with cyclic boronic acid ester derivative [7]: Z (MIC of greater than 8 μg/mL) | Ceftazidime MIC with cyclic boronic acid ester derivative [8]: X (MIC of 1 μg/mL or less) | Ceftazidime MIC with cyclic boronic acid ester derivative [9]: Z (MIC of greater than 8 μg/mL) | MPC8 [10]: Y (MPC8 of 0.16 μg/mL to 1 μg/mL) | pIC50 [11]: > 6.47 | pIC50 (OXA-2, lysate of KX1000): > 6.47 | IC50 [12]: < 1680 nM | pIC50 [12]: > 5.77 | pIC50 [13]: > 5.77 | pIC50 [14]: 5.17 to 5.77 | pIC50 [15]: > 5.77 | pIC50 [16]: < 5.17 | pIC50 [17]: > 5.77 | pIC50 (SME-2, lysate of SM1000): > 6.47 | pIC50 (GES-1, lysate of pa 1063): > 6.47 | pIC50 [18]: > 6.47 | MPC8 [19]: Y (MPC8 of 0.16 μg/mL to 1 μg/mL) | pIC50 (SHV-18, lysate of KP1012): 5.47 to 6.47 | pIC50 [20]: < 5.17 | pIC50 (OXA-10, lysate of KP1007): 5.47 to 6.47

O=C(O)C[C@@H]1CC[C@H](NC(=O)Cc2ccccc2)B(O)O1 [Compound 6, 2-((3R,6S)-2-hydroxy-3-(2-phenylacetamido)-1,2-oxaborinan-6-yl)acetic acid]
pIC50 (SHV-5, lysate of ec308): < 5.46 | Ceftazidime MIC with cyclic boronic acid ester derivative [1]: Y (MIC of greater than 1 μg/mL to 8 μg/mL) | Ceftazidime MIC with cyclic boronic acid ester derivative [2]: Y (MIC of greater than 1 μg/mL to 8 μg/mL) | Ceftazidime MIC with cyclic boronic acid ester derivative [3]: X (MIC of 1 μg/mL or less) | Ceftazidime MIC with cyclic boronic acid ester derivative (SA1000 Salmonella CMY-2): X (MIC of 1 μg/mL or less) | Ceftazidime MIC with cyclic boronic acid ester derivative [4]: Z (MIC of greater than 8 μg/mL) | Ceftazidime MIC with cyclic boronic acid ester derivative [5]: Z (MIC of greater than 8 μg/mL) | Ceftazidime MIC with cyclic boronic acid ester derivative [6]: Z (MIC of greater than 8 μg/mL) | Ceftazidime MIC with cyclic boronic acid ester derivative [7]: Z (MIC of greater than 8 μg/mL) | Ceftazidime MIC with cyclic boronic acid ester derivative [8]: X (MIC of 1 μg/mL or less) | Ceftazidime MIC with cyclic boronic acid ester derivative [9]: Z (MIC of greater than 8 μg/mL) | MPC8 [10]: Y (MPC8 of 0.16 μg/mL to 1 μg/mL) | pIC50 [11]: 5.46 to 6.46 | pIC50 (OXA-2, lysate of KX1000): 5.46 to 6.46 | IC50 [12]: < 1720 nM | pIC50 [12]: > 5.77 | pIC50 [13]: 5.16 to 5.77 | pIC50 [14]: > 5.77 | pIC50 [15]: > 5.77 | pIC50 [16]: < 5.16 | pIC50 [17]: > 5.77 | pIC50 (KPC-2, lysate of KP1008): > 6.46 | pIC50 (SME-2, lysate of SM1000): 5.46 to 6.46 | pIC50 (GES-1, lysate of pa 1063): 5.46 to 6.46 | pIC50 (KPC-2, lysate of KP1004): > 6.46 | pIC50 [18]: 5.46 to 6.46 | MPC8 [19]: Y (MPC8 of 0.16 μg/mL to 1 μg/mL) | pIC50 (SHV-18, lysate of KP1012): 5.46 to 6.46 | pIC50 [20]: < 5.16 | pIC50 (OXA-10, lysate of KP1007): < 5.46
